According to patent US8592407B2, “Pyrrolo[2,1-c][1,4] benzodiazepine derivatives with dithiocarbamate side chains and process for the preparation thereof” (Council of Scientific & Industrial Research, priority 2008, dated 2013):

Columns and labels:
[1] = system: sixty human tumour cell lines; assay: cells; details: read-out: GI50 value against sixty cell lines in nine cell panels
Protocol: For each compound, dose response curves for each cell line were measured at a minimum of five concentrations at 10 fold dilutions. A protocol of 48 h continuous drug exposure was used and a sulforhodamine B (SRB) protein assay was used to estimate cell viability or growth. The concentration causing 50% cell growth inhibition (G150), total cell growth inhibition (TGI 0% growth) and 50% cell death (LC50, −50% growth) compared with the control was calculated.

Lung A-549 = details: human
Ovary OVCAR-5 = details: human
Liver HEP-2 = details: human
Colon 502713 = details: human

## COc1cc2c(cc1OCCCN1CCN(C(=S)SCCC(C#N)(c3ccccc3)c3ccccc3)CC1)N=C[C@@H]1CCCN1C2=O [Compound 12b, 3-cyano-3,3-diphenylpropyl 4-(3-[(11aS)-7-(methyloxy)-5-oxo-2,3,5,11a-tetrahydro-1H-benzo[e]pyrrolo[1,2-a][1,4]diazepin-8-yl]oxypropyl)hexahydro-1-pyrazinecarbodithioate]
[1]
  GI50: < 2.69 µM

## COc1cc2c(cc1OCCCCN1CCN(C(=S)SCCC(C#N)(c3ccccc3)c3ccccc3)CC1)N=C[C@@H]1CCCN1C2=O [Compound 12c, 3-cyano-3,3-diphenylpropyl 4-(4-[(11aS)-7-(methyloxy)-5-oxo-2,3,5,11a-tetrahydro-1H-benzo[e]pyrrolo[1,2-a][1,4]diazepin-8-yl]oxybutyl)hexahydro-1-pyrazinecarbodithioate]
Lung A-549
  Preliminary in vitro cytotoxicity data: 31%
Ovary OVCAR-5
  Preliminary in vitro cytotoxicity data: 24%
Liver HEP-2
  Preliminary in vitro cytotoxicity data: 69%
Colon 502713
  Preliminary in vitro cytotoxicity data: 75%
